Source: US20020172974A1, “Method of screening for antimicrobial compounds” (priority 1997, published 2002)

Legend:
E. coli JM109 [pSB311] = test: dual culture bioluminescence assay, reading before octanal substrate addition; assay type: cell-based; conditions: E. coli/S. aureus co-culture, 5 hours at 37° C., FIG. 1
Procedure: E. coli JM109 [pSB311] has a plasmid that contains the entire lux gene cassette (luxCDABE) from Photorhabdus luminescens. In this organism bioluminescence initiation is independent on the addition of aldehyde substrate.
E. coli JM109 was grown overnight at 37° C. in Brain Heart Infusion (BHI) broth to give approximately 1×10^9 CFU/ml.
(§1) S. aureus RN4220 [PKF1] was grown overnight at 37° C. in Brain Heart Infusion (BHI) broth containing 10 ug/ml chloramphenicol to give approximately 1×10^9 CFU/ml. The overnight cultures were diluted to give 1×10^6 CFU/ml for E. coli and 1×10^7 CFU/ml for S. aureus and 25 μl of each organism was added to each well.
(§2) Test compounds were serially diluted in BHI and 50 μl was added to each well of a 96 well microtitre plate.
(§3) The plate was incubated for 5 hours at 37° C. and bioluminescence from compound treated cells was compared with non-treated cells using a luminometer (Wallac LB96B) to give bioluminescence output for E. coli (no substrate addition).

S. aureus RN4220 [pKF1] = test: dual culture bioluminescence assay, reading after octanal addition minus initial reading; assay type: cell-based; conditions: E. coli/S. aureus co-culture, 5 hours at 37° C., RLU after octanal minus initial reading, FIG. 3
Procedure: S. aureus RN4220 [pKF1] has a plasmid that contains only luxAB genes so bioluminescence is dependent on the addition of aldehyde substrate. Chloramphenicol resistance is used as a selective marker for plasmid maintenance.
as §1, §2, §3
To monitor the effect of the antibiotics on S. aureus bioluminescence 50 μl of 0.01% (v/v) octanal substrate was added to each well and bioluminescence was measured immediately after substrate addition to each individual well (Total RLU's for both E. coli and S. aureus). To obtained RLU's for S. aureus the initial RLU reading was subtracted from the reading taken immediately following substrate addition.

Row | SMILES | potency against E. coli (comparison in words) (E. coli JM109 [pSB311]; compared with mupirocin) | activity against S. aureus (in words) (S. aureus RN4220 [pKF1]) | concentrations required to inhibit bioluminescence (E. coli JM109 [pSB311]; no substrate addition)
1 | CC1(C)S[C@@H]2[C@H](NC(=O)[C@H](N)c3ccc(O)cc3)C(=O)N2[C@H]1C(=O)O [Amoxicillin] | more potent | potent activity | –
2 | C/C(=C\C(=O)OCCCCCCCCC(=O)O)C[C@@H]1OC[C@H](C[C@@H]2O[C@H]2[C@@H](C)[C@H](C)O)[C@@H](O)[C@H]1O [mupirocin] | – | potent activity | greater than 64 μl/ml
